Assay results reported in US9006250B2, “4-amino-6-(heterocyclic)picolinates and 6-amino-2-(heterocyclic)pyrimidine-4-carboxylates and their use as herbicides” (Dow AgroSciences, LLC, priority 2013, dated 2015).

What was measured:
Experiment in all cases: Postemergence herbicidal activity in direct seeded rice
Format in all cases: in vivo
ORYSK: Oryza sativa = tested on: ORYSK: Oryza sativa
From the text: (§1) Seeds or nutlets of the desired test plant species were planted in a soil matrix prepared by mixing a loam soil (43 percent silt, 19 percent clay, and 38 percent sand, with a pH of about 8.1 and an organic matter content of about 1.5 percent) and river sand in an 80 to 20 ratio. The soil matrix was contained in plastic pots with a surface area of 139.7 cm^2. When required to ensure good germination and healthy plants, a fungicide treatment and/or other chemical or physical treatment was applied. The plants were grown for 10-17 d in a greenhouse with an approximate 14-h photoperiod which was maintained at about 29° C. during the day and 26° C. during the night. Nutrients and water were added on a regular basis and supplemental lighting was provided with overhead metal halide 1000-Watt lamps as necessary. The plants were employed for testing when they reached the second or third true leaf stage. A weighed amount, determined by the highest rate to be tested, of each test compound was placed in 25 mL glass vials and dissolved in a volume of 97:3 v/v acetone-DMSO to obtain 12× stock solutions. […] The concentrated stock solutions were added to the spray solutions so that the final acetone and DMSO concentrations were 16.2% and 0.5%, respectively. Spray solutions were diluted to the appropriate final concentrations with the addition of 10 mL of an aqueous mixture of 1.5% (v/v) Agri-dex crop oil concentrate. The final spray solutions contained 1.25% (v/v) Agri-dex crop oil concentrate. Compound requirements are based upon a 12 mL application volume at a rate of 187 L/ha. Formulated compounds were applied to the plant material with an overhead Mandel track sprayer equipped with […] nozzles calibrated to deliver 187 L/ha over an application area of 0.503 square meters (m^2) at a spray height of 18 inches ([…]) above average plant canopy height. Control plants were sprayed in the same manner with the solvent blank. The treated plants and control plants were placed in a greenhouse as described above and watered by sub-irrigation to prevent wash-off of the test compounds. After 20-22 days, the condition of the test plants, compared with that of the untreated plants, was determined visually and scored on a scale of 0 to 100 percent where 0 corresponds to no injury and 100 corresponds to complete kill. By applying the well-accepted probit analysis as described by J. Berkson in […], 48, 565 (1953) and by D. Finney in “Probit Analysis” Cambridge University Press (1952), the above data can be used to calculate GR20, GR50, GR80 and GR90 values, which are defined as growth reduction factors that correspond to the effective dose of herbicide required to kill or control 20 percent, 50 percent, 80 percent or 90 percent, respectively, of a target plant.

[1] = tested on: SCPJU: Japanese bulrush, Scirpus juncoides
From the text: as §1

[2] = tested on: CYPES: yellow nutsedge, Cyperus esculentus
From the text: as §1

[3] = tested on: DIGSA: large crabgrass, Digitaria sanguinalis
From the text: as §1

[4] = tested on: CYPIR: rice flatsedge, Cyperus iria
From the text: as §1

[5] = tested on: BRAPP: broadleaf signalgrass, Brachiaria platyphylla
From the text: as §1

[6] = tested on: ECHCG: barnyardgrass, Echinochloa crus-galli
From the text: as §1

[7] = tested on: LEFCH: Chinese sprangletop, Leptochloa chinensis
From the text: as §1

ORYSJ: Oryza sativa = tested on: ORYSJ: Oryza sativa
From the text: as §1

[8] = tested on: SEBEX: hemp sesbania, Sesbania exaltata
From the text: as §1

[9] = tested on: ECHCO: junglerice, Echinochloa colonum
From the text: as §1

[10] = tested on: CYPDI: small-flower flatsedge, Cyperus difformis
From the text: as §1

[11] = dose for 20 percent growth reduction, probit analysis
[12] = dose for 50 percent control, probit analysis
[13] = dose for 80 percent control, probit analysis
[14] = dose for 90 percent control, probit analysis

With `COC(=O)c1nc(-c2ccc3nsnc3c2)c(F)c(N)c1Cl` [Compound 11] the “Visual Growth Reduction (%) 21 Days After Application ORYSK” value (ORYSK: Oryza sativa; 17.5 g ai/ha) was “G (0-29)”, the “Visual Growth Reduction (%) 21 Days After Application ORYSK” value (ORYSK: Oryza sativa; 35 g ai/ha) was “G (0-29)” and the “Visual Growth Reduction (%) 21 Days After Application ORYSK” value (ORYSK: Oryza sativa; 70 g ai/ha) was “G (0-29)”. For the same compound, the “GR20 ORYSK” value (ORYSK: Oryza sativa; [11]) was greater than 70 g ai/ha, the “Visual Growth Reduction (%) 21 Days After Application SCPJU” value ([1]; 17.5 g ai/ha) was “A (95-100)” and the “Visual Growth Reduction (%) 21 Days After Application SCPJU” value ([1]; 35 g ai/ha) was “A (95-100)”. For the same compound, the “Visual Growth Reduction (%) 21 Days After Application SCPJU” value ([1]; 70 g ai/ha) was “A (95-100)”, the “GR50 SCPJU” value [1, 12] was 4 g ai/ha and the “GR80 SCPJU” value [1, 13] was 9 g ai/ha. The “GR90 SCPJU” value [1, 14] was 14 g ai/ha, the “Visual Growth Reduction (%) 21 Days After Application CYPES” value ([2]; 17.5 g ai/ha) was “D (60-74)” and the “Visual Growth Reduction (%) 21 Days After Application CYPES” value ([2]; 35 g ai/ha) was “G (0-29)”. The “Visual Growth Reduction (%) 21 Days After Application CYPES” value ([2]; 70 g ai/ha) was “E (45-59)”, the “GR50 CYPES” value [2, 12] was greater than 70 g ai/ha and the “GR80 CYPES” value [2, 13] was greater than 70 g ai/ha. The “GR90 CYPES” value [2, 14] was greater than 70 g ai/ha, the “Visual Growth Reduction (%) 21 Days After Application DIGSA” value ([3]; 17.5 g ai/ha) was “E (45-59)” and the “Visual Growth Reduction (%) 21 Days After Application DIGSA” value ([3]; 35 g ai/ha) was “E (45-59)”. For the same compound, the “Visual Growth Reduction (%) 21 Days After Application DIGSA” value ([3]; 70 g ai/ha) was “D (60-74)”, the “GR50 DIGSA” value [3, 12] was 11 g ai/ha and the “GR80 DIGSA” value [3, 13] was 628 g ai/ha. For the same compound, the “GR90 DIGSA” value [3, 14] was 5310 g ai/ha, the “Visual Growth Reduction (%) 21 Days After Application CYPIR” value ([4]; 17.5 g ai/ha) was “G (0-29)” and the “Visual Growth Reduction (%) 21 Days After Application CYPIR” value ([4]; 35 g ai/ha) was “E (45-59)”. For the same compound, the “Visual Growth Reduction (%) 21 Days After Application CYPIR” value ([4]; 70 g ai/ha) was “F (30-44)”, the “GR50 CYPIR” value [4, 12] was 78 g ai/ha and the “GR80 CYPIR” value [4, 13] was 212 g ai/ha. The “GR90 CYPIR” value [4, 14] was 357 g ai/ha, the “Visual Growth Reduction (%) 21 Days After Application BRAPP” value ([5]; 17.5 g ai/ha) was “G (0-29)” and the “Visual Growth Reduction (%) 21 Days After Application BRAPP” value ([5]; 35 g ai/ha) was “G (0-29)”. The “Visual Growth Reduction (%) 21 Days After Application BRAPP” value ([5]; 70 g ai/ha) was “E (45-59)”, the “GR50 BRAPP” value [5, 12] was greater than 70 g ai/ha and the “GR80 BRAPP” value [5, 13] was greater than 70 g ai/ha. The “GR90 BRAPP” value [5, 14] was greater than 70 g ai/ha, the “Visual Growth Reduction (%) 21 Days After Application ECHCG” value ([6]; 17.5 g ai/ha) was “E (45-59)” and the “Visual Growth Reduction (%) 21 Days After Application ECHCG” value ([6]; 35 g ai/ha) was “C (75-84)”. The “Visual Growth Reduction (%) 21 Days After Application ECHCG” value ([6]; 70 g ai/ha) was “B (85-94)”, the “GR50 ECHCG” value [6, 12] was 6 g ai/ha and the “GR80 ECHCG” value [6, 13] was 37 g ai/ha. For the same compound, the “GR90 ECHCG” value [6, 14] was 98 g ai/ha, the “Visual Growth Reduction (%) 21 Days After Application LEFCH” value ([7]; 17.5 g ai/ha) was “G (0-29)” and the “Visual Growth Reduction (%) 21 Days After Application LEFCH” value ([7]; 35 g ai/ha) was “G (0-29)”. For the same compound, the “Visual Growth Reduction (%) 21 Days After Application LEFCH” value ([7]; 70 g ai/ha) was “G (0-29)”, the “GR50 LEFCH” value [7, 12] was 114 g ai/ha and the “GR80 LEFCH” value [7, 13] was 186 g ai/ha. For the same compound, the “GR90 LEFCH” value [7, 14] was 239 g ai/ha, the “Visual Growth Reduction (%) 21 Days After Application ORYSJ” value (ORYSJ: Oryza sativa; 17.5 g ai/ha) was “G (0-29)” and the “Visual Growth Reduction (%) 21 Days After Application ORYSJ” value (ORYSJ: Oryza sativa; 35 g ai/ha) was “G (0-29)”. For the same compound, the “Visual Growth Reduction (%) 21 Days After Application ORYSJ” value (ORYSJ: Oryza sativa; 70 g ai/ha) was “G (0-29)”, the “GR20 ORYSJ” value (ORYSJ: Oryza sativa; [11]) was greater than 70 g ai/ha and the “Visual Growth Reduction (%) 21 Days After Application SEBEX” value ([8]; 17.5 g ai/ha) was “C (75-84)”. The “Visual Growth Reduction (%) 21 Days After Application SEBEX” value ([8]; 35 g ai/ha) was “A (95-100)”, the “Visual Growth Reduction (%) 21 Days After Application SEBEX” value ([8]; 70 g ai/ha) was “A (95-100)” and the “GR50 SEBEX” value [8, 12] was 4 g ai/ha. The “GR80 SEBEX” value [8, 13] was 11 g ai/ha, the “GR90 SEBEX” value [8, 14] was 19 g ai/ha and the “Visual Growth Reduction (%) 21 Days After Application ECHCO” value ([9]; 17.5 g ai/ha) was “E (45-59)”. For the same compound, the “Visual Growth Reduction (%) 21 Days After Application ECHCO” value ([9]; 35 g ai/ha) was “D (60-74)”, the “Visual Growth Reduction (%) 21 Days After Application ECHCO” value ([9]; 70 g ai/ha) was “C (75-84)” and the “GR50 ECHCO” value [9, 12] was 15 g ai/ha. The “GR80 ECHCO” value [9, 13] was 107 g ai/ha, the “GR90 ECHCO” value [9, 14] was 300 g ai/ha and the “Visual Growth Reduction (%) 21 Days After Application CYPDI” value ([10]; 17.5 g ai/ha) was “A (95-100)”. For the same compound, the “Visual Growth Reduction (%) 21 Days After Application CYPDI” value ([10]; 35 g ai/ha) was “A (95-100)”, the “Visual Growth Reduction (%) 21 Days After Application CYPDI” value ([10]; 70 g ai/ha) was “A (95-100)” and the “GR50 CYPDI” value [10, 12] was 6 g ai/ha. The “GR80 CYPDI” value [10, 13] was 11 g ai/ha and the “GR90 CYPDI” value [10, 14] was 16 g ai/ha.
